From article PMC11129182, “Development of Inhibitors, Probes, and PROTAC Provides a Complete Toolbox to Study PARK7 in the Living Cell” (Journal of Medicinal Chemistry, 2024)
“Also recorded” adds a separate entry of the source. Where two headings read alike, the source gives them in different places.

Tests used:
PARK7 [1] = biological target: T1, PARK7 (Homo sapiens, UniProt Q99497); settings: read-out: IC50 (nM) DiFUMAc; 0.1 μM PARK7, 1 h preincubation, 300 μM DiFMUAc
T1 sequence (Q99497 1-189): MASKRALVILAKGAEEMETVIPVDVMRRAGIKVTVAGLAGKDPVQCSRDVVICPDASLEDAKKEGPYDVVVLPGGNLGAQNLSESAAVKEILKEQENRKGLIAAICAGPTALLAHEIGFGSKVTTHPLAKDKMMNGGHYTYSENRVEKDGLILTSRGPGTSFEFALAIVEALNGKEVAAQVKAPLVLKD
Description: Compounds were transferred using a Labcyte Echo550 acoustic dispenser to obtain a 12-point serial dilution of 0.001–100 μM. Next, PARK7 (15 μL, final concentration 0.1 μM) was dispensed with a Biotek MultiFlowFX liquid dispenser and incubated for 1 h, followed by dispensing the substrate DiFMUAc (5 μL, final concentration 300 μM). The fluorescence intensity (FI) signal was monitored on a BMG Labtech PHERAstar plate reader (λex/em 350/450 nm) for 1 h.

PARK7 [2] = biological target: T1, PARK7; experiment: Probe labeling of endogenous PARK7 in cells (HEK293T, A549); type: cell-based; settings: for cellular PARK7 labeling efficiency over time: A549 cells, indicated time points; for cellular PARK7 labeling efficiency over time / labeling of PARK7 in cells: 5 μM; for labeling of PARK7 in cells: 24 h
Description: To further investigate the ability of these probes to visualize PARK7 in cells, HEK293T and A549 cells were incubated with 5 μM of these probes for 24 h, followed by cell lysis, SDS-PAGE, fluorescence scanning, and immunostaining (Supporting Information Figure S7). […] We also observed a band shift of the PARK7 protein in the samples treated with JYQ-192, JYQ-196, and JYQ-197 by immunoblot against PARK7 in A549 cells. […] Therefore, we further investigated JYQ-192, JYQ-196, and JYQ-197. To characterize their cell permeability, A549 cells were incubated with 5 μM final concentration of these probes for the indicated time points, followed by confocal microscopy and by cell lysis, SDS-PAGE, fluorescence scanning, and immunostaining. All three probes already entered the cells after 1 h incubation (Supporting Information Figure S8A). […] Besides PARK7, we observed extra bands in the fluorescence scan for both HEK293T and A549 cells and a very strong band labeling between 55 and 75 kDa in A549 cells with a 5 μM final concentration of all probes.
Despite the fact that probe JYQ-196 outperformed SulfoCy5 probes JYQ-192 and JYQ-197 in terms of the cellular PARK7 labeling efficiency, this probe still lacked specificity toward PARK7. PARK7 is known to form dimers, trimers, and even high-molecular-weight complexes under nonreducing conditions.[29],[30] […] To investigate further whether lower concentrations of JYQ-196 can decrease unspecific labeling, HEK293T and A549 cells were incubated with increased concentrations (0–10 μM) of JYQ-196 for 4 h, followed by cell lysis, SDS-PAGE, fluorescence scanning, and immunostaining (Figure 4C).
Oligos used to knockdown PARK7 were purchased from Dharmacon (Cat#: MQ-005984-00-0002). Silencing was performed in HEK293T and A549 cells as follows: for a 24-well plate format, 50 μL of siRNA (500 nM stock) was incubated with 1 μL of Dharmafect reagent 1 (Dharmacon) diluted in 50 μL of medium without supplements (total volume of 100 μL of transfection mix) with gentle shaking for 20 min at room temperature (RT). A total of 30 × 10^3 HEK293T or 50 × 10^3 cells were added to transfection mixes to a total volume of 500 μL per well and cultured for 48 h prior to incubation with 5 μM final concentration of JYQ-196 for 4 h.
HEK293T or A549 cells were incubated with indicated concentration of the probes for the indicated time points, followed by cell lysis and adding loading buffer (4x).

PARK7 [3] = biological target: T1, PARK7; experiment: Probe labeling of purified recombinant PARK7; settings: 1 μM PARK7, 1 h, 37 °C
Description: The ability of these probes to label and visualize PARK7 activity in vitro was evaluated by treating recombinant human PARK7 protein (1 μM) with a concentration series of the probes for 1 h at 37 °C, followed by SDS-PAGE analysis under nondenaturing conditions (without boiling and β-mercaptoethanol).
The assay was conducted in Tris-buffer (50 mM Tris-HCl, 150 mM NaCl, 2 mM TCEP, pH 7.5). PARK7 (1 μM final concentration) was incubated with different concentrations (0, 0.1, 0.5, 1, 2, 5, and 10 μM) of the indicated probes for 1 h at 37 °C. After completing the incubation time, all of the reactions were stopped by adding NuPAGE LDS sample buffer (4x).

PARK7 [4] = biological target: T1, PARK7; experiment: Hit validation and pure-compound testing in the PARK7 FP assay with JYQ-107; type: biochemical; settings: for inhibition at 0.25 µM: read-out: % Inhibition 0.25 µM; for inhibition at 0.5 µM: read-out: % Inhibition 0.5 µM
PARK7 [5] = biological target: T1, PARK7; experiment: Cell-based competition assay with probe JYQ-92 in HEK293T cells; settings: 24 h
Description: Samples were resolved by SDS-PAGE and analyzed by fluorescence scanning and Western blotting (Figure 2B). The target engagement of cellular PARK7 is reflected by the disappearance of the PARK7 labeling band in the fluorescence gel scan and by the loss of the shifted probe-labeled PARK7 band in the Western blot.
HEK293T cells were treated with the indicated concentrations of indicated inhibitors for indicated incubation time.
Figure S1. Assessment of the cell permeability of JYQ -88. (A) Structure of JYQ-92.
(B) Target engagement of JYQ-88 in HEK293T cells. HEK293T cells were incubated […]
with PARK7 probe JYQ-92 fo r 1 h at 37 °C. The reactions were stopped by the addition of NuPAGE™ LDS sample buffer (4x). Samples were resolved by SDS -PAGE using […]
fluorescence scanning on a Typhoon FLA 9500 (GE Healthcare Life Sciences) using […]
The disappearance of the JYQ-92-labeled band in […]
of JYQ-88 is used as a measurement of cellular PARK7 engagement with JYQ -88.
(§1) (1 picture or pasted object on this page, not shown here)

PARK7 [6] = biological target: T1, PARK7; experiment: High-throughput screen of the crude compound library, PARK7 fluorescence polarization (FP) assay with FP reagent JYQ-107; type: biochemical; settings: for inhibition at 1.25 µM: read-out: HTS FP assay %Inhibition (1.25 µM)
DUBs = experiment: Activity-based DUB profiling with Rho-Ub-PA probe in HEK293T cells; type: cell-based, human; settings: 5 µM, 24 h
Description: Figure S3. Activity evaluation of inhibitors against DUBs in HEK293T cells. (A ) Inhibitors from structure modification. (B) Inhibitors from HTS. HEK293T cells were […]
incubation with Rho- Ub-PA probe for 30 min at 37 °C. Samples were resolved by SDS - […]
and visualized by fluorescence scanning on a Typhoon FLA 9500 (GE Healthcare Life […]
Nitrocellulose membranes and Western blot analysis.
as §1

[7] = 1.25 µM, crude compound library

Molecule: O=C1C(=O)N(CCc2ccccc2)c2ccc(F)cc21 [STK793590]
- IC50 (PARK7 [1]): 130 nM

Molecule: CC[N+]1=C(/C=C/C=C/C=C2/N(CCCCCC(=O)NCCCc3cn(-c4ccc(F)c(C(=O)N5CCc6nc(NC(=O)[C@@H]7CCN(C#N)C7)sc6C5)c4)nn3)c3ccc(S(=O)(=O)O)cc3C2(C)C)C(C)(C)c2cc(S(=O)(=O)[O-])ccc21 [JYQ-197]
- cellular PARK7 labeling efficiency over time (PARK7 [2]): labeled a small portion of cellular PARK7 even after 24 h incubation
- labeling of PARK7 in cells (PARK7 [2]; HEK293T and A549 cells): clear band around 25 kDa
- probe concentration giving complete labeling of recombinant PARK7 (Coomassie band shift) (PARK7 [3]): 1 µM

Molecule: N#CN1CC[C@@H](C(=O)Nc2nc3c(s2)CN(C(=O)CN=[N+]=[N-])CC3)C1 [JYQ-88, reference compound]
- inhibition at 0.25 µM (PARK7 [4]; pure compounds): 55.4%
- inhibition at 1 µM (PARK7 [4]; pure compounds): 83.2%
- cellular PARK7 engagement of JYQ-88 (PARK7 [5]; intact HEK293T cells, concentration series): did not show inhibition of PARK7 in cells; also recorded: poor cellular engagement
- IC50 (PARK7 [1]): 120 nM

Molecule: CC1=CC(C)=[N+]2C1=C(CCCCc1cn(-c3ccc(F)c(C(=O)N4CCc5nc(NC(=O)[C@@H]6CCN(C#N)C6)sc5C4)c3)nn1)c1c(C)cc(C)n1[B-]2(F)F [JYQ-196]
- cellular PARK7 labeling efficiency over time (PARK7 [2]): complete labeling of cellular PARK7 after 4 h incubation
- labeling of PARK7 in cells (PARK7 [2]; HEK293T and A549 cells): clear band around 25 kDa
- specificity of labeling (PARK7 siRNA depletion) (PARK7 [2]; HEK293T and A549 cells, siPARK7 48 h, then 5 μM for 4 h): unspecific labeling of other proteins
- probe concentration giving complete labeling of recombinant PARK7 (Coomassie band shift) (PARK7 [3]): 2 µM

Molecule: CC[N+]1=C(/C=C/C=C/C=C2/N(CCCCCC(=O)NCCCc3cn(CC(=O)N4CCN(S(=O)(=O)c5cccc(C(=O)N6CCc7nc(NC(=O)[C@@H]8CCN(C#N)C8)sc7C6)c5)CC4)nn3)c3ccc(S(=O)(=O)[O-])cc3C2(C)C)C(C)(C)c2cc(S(=O)(=O)O)ccc21 [JYQ-192]
- cellular PARK7 labeling efficiency over time (PARK7 [2]): labeled a small portion of cellular PARK7 even after 24 h incubation
- labeling of PARK7 in cells (PARK7 [2]; HEK293T and A549 cells): clear band around 25 kDa
- probe concentration giving complete labeling of recombinant PARK7 (Coomassie band shift) (PARK7 [3]): 2 µM

Molecule: CC1=CC(C)=[N+]2C1=C(CCCCc1cn(CC(=O)N3CCN(S(=O)(=O)c4cccc(C(=O)N5CCc6nc(NC(=O)[C@@H]7CCN(C#N)C7)sc6C5)c4)CC3)nn1)c1c(C)cc(C)n1[B-]2(F)F [JYQ-191]
- labeling of PARK7 in cells (PARK7 [2]; HEK293T and A549 cells): inefficient labeling of cellular PARK7
- probe concentration giving complete labeling of recombinant PARK7 (Coomassie band shift) (PARK7 [3]): 5 µM

Molecule: CC(=O)N1CCN(S(=O)(=O)c2cccc(C(=O)N3CCc4nc(NC(=O)[C@@H]5CCN(C#N)C5)sc4C3)c2)CC1 [Compound 336, (R)-N-(5-(3-((4-Acetylpiperazin-1-yl)sulfonyl)benzoyl)-4,5,6,7-tetrahydrothiazolo[5,4-c]pyridin-2-yl)-1-cyanopyrrolidine-3-carboxamide]
- inhibition at 1.25 µM (PARK7 [6]; [7]): 91.8%
- inhibition at 0.25 µM (PARK7 [4]; crude compounds): 76.8%
- inhibition at 0.5 µM (PARK7 [4]; crude compounds, 0.5 µM): 91.5%
- inhibition at 1 µM (PARK7 [4]; crude compounds): 98.3%
- % Inhibition 0.25 µM (PARK7 [4]; pure compounds): 87.6%
- inhibition at 0.25 µM (PARK7 [4]; pure compounds): ~100%
- inhibition at 1 µM (PARK7 [4]; pure compounds): 98.5%
- concentration from which PARK7 is engaged (PARK7 [5]; HEK293T cells, 0.1–5 μM dilution series): 1 µM
- inhibition of DUBs in cells (DUBs): did not show interference with the activity of any DUB

Molecule: Cc1cc(C(=O)N2CCc3nc(NC(=O)[C@@H]4CCN(C#N)C4)sc3C2)ccc1Br [Compound 415, (R)-N-(5-(4-Bromo-3-methylbenzoyl)-4,5,6,7-tetrahydrothiazolo[5,4-c]pyridin-2-yl)-1-cyanopyrrolidine-3-carboxamide]
- inhibition at 1.25 µM (PARK7 [6]; 1.25 µM, crude compound library, FP reagent JYQ-107): 93.1%
- inhibition at 0.25 µM (PARK7 [4]; crude compounds): 58%
- inhibition at 0.5 µM (PARK7 [4]; crude compounds, 0.5 µM): 79.8%
- inhibition at 1 µM (PARK7 [4]; crude compounds): 95.6%
- inhibition at 0.25 µM (PARK7 [4]; pure compounds): 68.3%
- inhibition at 1 µM (PARK7 [4]; pure compounds): 92.6%
- inhibition of DUBs in cells (DUBs): showed inhibition of one or more DUBs, mainly UCHL1

Molecule: (R)-N-(5-(3-(1,2,4-Oxadiazol-3-yl)benzoyl)-4,5,6,7-tetrahydrothiazolo[5,4-c]pyridin-2-yl)-1-cyanopyrrolidine-3-carboxamide [Compound 199]
- HTS FP assay %Inhibition (1.25 µM) (PARK7 [6]; [7]): 95.3%
- % Inhibition (PARK7 [6]; HTS of crude compound library, sheet "SMILES+%Inh HTS"): 95.3%
- % Inhibition 0.25 µM (PARK7 [4]; crude compounds): 81.4%
- % Inhibition 0.5 µM (PARK7 [4]; crude compounds, 0.5 µM): 91.6%
- % Inhibition 1 µM (PARK7 [4]; crude compounds): 98.6%
- % Inhibition 0.25 µM (PARK7 [4]; pure compounds): 80.7%
- % Inhibition 1 µM (PARK7 [4]; pure compounds): 94.6%
- inhibition of DUBs in cells (DUBs): showed inhibition of one or more DUBs, mainly UCHL1
